Source: US5639782A, “Neolignan derivatives as platelet activating factor receptor antagonists and 5-lipoxygenase inhibitors” (Center for Innovative Technology, priority 1994, dated 1997)
Entries after “also recorded” stand apart in the source; their conditions may differ. Like-named read-outs stand apart in the source and are kept apart here.

Key:
PAF receptor = conditions: literature report; cited from earlier work
[1] = test system: PAF induced platelet aggregation (human platelets); assay: PAF induced platelet aggregation assay; type: cell-based; conditions: for PAF antagonist activity (in words): in vitro
Method: In vitro experiments have been conducted to determine the PAF and 5-lipoxygenase inhibitory activity of a variety of synthesized, neolignan derivative compounds. In particular, the novel compounds are either 2,4-diaryl-1,3-dithiolanes or futoenone derivatives. PAF antagonist activity was determined according to the method of Shen et al., in Methods of Ezymology, Vol. 187, 447-449 (1990), and that article is herein incorporated by reference. The 5-lipoxygenase inhibitory activity was determined according to an assay discussed below.
The following outlines a platelet aggregation assay procedure. Blood is obtained from human volunteers who have not ingested aspirin or steroid drugs for ten days and is stored with a 3.8% trisodium citrate anticoagulant. Heparin is not used as the anticoagulant since it interferes with platelet aggregation. Citrated blood is centrifuged at 220 g for 10 min. at room temperature to obtain platelet-rich plasma (PRP). The platelet count is determined and is adjusted to […]. Platelet-poor plasma (PPP) is prepared by centrifuging PRP at 1000 g for 20 min. to pelletize the platelets. PPP is used to calibrate the aggregometer. Washed platelet suspension (WPS) is prepared from PRP by underlayering the latter with Ficoll-Paque (9:2, v/v) and centrifuging at 750 g for 15 min. at room temperature. The platelets form a band between the plasma and the separation medium and are carefully collected and suspended in Tyrode's solution (in mM: NaCl, 137; KCl, 2.7; NAHCO3, 11.9; NaH2 -PO4, 0.42; MgCl2, 1.0; CaCl2, 1.0; HEPES, 5.0; and dextrose, 1 g/liter, with 0.25% BSA, w/v, pH 7.4). Prostacyclin (PGI2) (1 ng/ml) can be added to the suspension to prevent platelet activation; however, it should be understood that the inhibitory activity of PGI2 disappears completely 10 min. from the time of addition at room temperature. The suspension is then spun at 1000 g for 10 min. and the pellet is resuspended in Tyrode's buffer for platelet aggregation. The suspensions are maintained at 37° C. and stirred constantly at 1000 revolutions per min (rpm). A known amount of PAF, such as 0.11 μM PAF, is added to the suspension three to five minutes after the addition of the potential PAF antagonists (the synthesized compounds). […] To obtain the IC50 value, varying concentrations of a potential antagonist need to be added to the test suspensions with the percentage inhibition being determined for each concentration of the antagonist, and the IC50 value is obtained from a plot of the percentage inhibition versus concentration of the antagonist.

[2] = PAF induced platelet aggregation

SMILES	PAF receptor antagonism (in words) (PAF receptor)	PAF antagonist activity (in words) [1, 2]	also measured
COc1cc(C2CCC(c3cc(OC)c(OC)c(OC)c3)O2)cc(OC)c1OC [L-652,731]	potent PAF receptor antagonists		
CCCOc1c(OC)cc(C2CCC(c3cc(OC)c(OC)c(OC)c3)O2)cc1S(C)(=O)=O [L-659,989]	potent PAF receptor antagonists		
COc1cc(C2CSC(c3cc(OC)c(OC)c(OC)c3)S2)cc(OC)c1OC (stereo not drawn) [compound 1, Cis and trans-2,4-bis-(3,4,5-trimethoxyphenyl)-1,3-dithiolane]			IC50 ([1]; Homo sapiens, PAF induced platelet aggregation, read-out: IC50 value, PAF-induced platelet aggregation): < 1 µM
COC1=C[C@]23C[C@H](C[C@H](c4ccc5c(c4)OCO5)[C@H]2C)OC3=CC1=O [futoenone]		posesses PAF antagonist activity; also recorded: potent PAF antagonist activity	IC50 ([1]; human platelet assay in PRP, 0.1 μM PAF, read-out: IC50 value for platelet aggregation induced by 0.1 μM PAF): ~13.6 µM
C=CCC1=C[C@@]2(OC)C(=CC1=O)O[C@H](c1ccc(OC)c(OC)c1)[C@H]2C [kadsurenone]	potent, specific and competitive inhibitor of PAF at the receptor level		
COc1cc(C2CSC(c3cc(OC)c(OC)c(OC)c3)O2)cc(OC)c1OC (stereo not shown) [oxathiolane (F')]		much weaker antagonist of PAF-induced platelet aggregation than the corresponding dithiolane compound	
